# Source: patent US12545681B2, “Compound used as RET kinase inhibitor and application thereof” (TYK Medicines, Inc., priority 2020, dated 2026)
# Numbering of substitutions follows the chain as printed. Read-outs that look alike come from different tables or passages of the source.
# Key:
# RET = conditions: cited from earlier work
# Ba/F3-KIF5B-RET-V804M = molecular target: T1, Ba/F3-KIF5B-RET-V804M (Homo sapiens, UniProt P07949, V804M); assay: Cell anti-proliferation (CellTiter-Glo), Ba/F3-KIF5B-RET-V804M cells; assay type: cell-based; conditions: cell viability, 72 h incubation
# T1 construct: KIF5B (fusion partner, N-terminal part of kinesin-1 heavy chain, P33176); host or cells: Ba/F3 (murine pro-B cells); the other entry of the earlier key: KIF5B (P33176, Kinesin-1 heavy chain)
# T1 sequence (P07949 713-1063 V804M limits assumed): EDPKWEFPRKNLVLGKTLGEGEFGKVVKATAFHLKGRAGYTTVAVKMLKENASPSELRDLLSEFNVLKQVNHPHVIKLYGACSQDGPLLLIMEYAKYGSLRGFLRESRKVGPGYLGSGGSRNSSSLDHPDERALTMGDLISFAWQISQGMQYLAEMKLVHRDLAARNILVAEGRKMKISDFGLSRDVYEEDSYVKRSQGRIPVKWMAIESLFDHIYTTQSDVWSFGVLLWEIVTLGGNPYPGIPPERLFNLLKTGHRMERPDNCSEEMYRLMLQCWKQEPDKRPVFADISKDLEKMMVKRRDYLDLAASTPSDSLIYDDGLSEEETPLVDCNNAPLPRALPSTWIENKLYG
# Procedure: (§1) Ba/F3-KIF5B-RET, Ba/F3-KIF5B-RET-V804L and Ba/F3-KIF5B-RET-V804M cells were constructed by PreceDo Pharmaceuticals Co., Ltd.
# (§2) Ba/F3-KIF5B-RET, Ba/F3-KIF5B-RET-V804L and Ba/F3-KIF5B-RET-V804M medium: RPMI-1640+10% FBS+1% P/S.
# (§3) A 1000×solution of the compound was prepared with DMSO, the compound was diluted to 20 times to obtain the final concentration with a growth medium, and 2 μl 1000×cpd was added to 98 μl growth medium.
# (§4) Cells were centrifuged and resuspended with growth medium and cell counting was performed using a cell counter. The cell suspension was diluted with growth medium to the desired concentration. 95 uL of the diluted cell suspension was taken out to a 96-well plate. 5 μL of 20×compound solution was added to the 96-well plate to a final DMSO concentration of 0.1% per well. The 96-well plate was incubated for 72 h at 37° C. with 5% CO2.
# (§5) The 96-well plate was equilibrated to room temperature before the assay, 50 μl of CellTiter-Glo® Reagent was added to each well, the cells were fully lysed by shaking for 2 minutes on a shaker, incubated for 10 minutes at room temperature, and Paradigm was used to detect and record the […] readings.
# (§6) Cell viability was analyzed using Graphpad 7.0 software according to the formula Cell viability (CV %)=(RLU compound−RLU blank)/(RLU control−RLU blank)*100%, and the corresponding IC50 data were calculated, in Table 1, the following names are used: <10.00 nM=A; 10.01-50.0 nM=B; >50 nM=C.
# Ba/F3-KIF5B-RET = molecular target: T2, Ba/F3-KIF5B-RET (Homo sapiens, UniProt P07949); assay: Cell anti-proliferation (CellTiter-Glo), Ba/F3-KIF5B-RET cells; assay type: cell-based; conditions: cell viability, 72 h incubation, CellTiter-Glo
# T2 construct: KIF5B (fusion partner, N-terminal part of kinesin-1 heavy chain, P33176); host or cells: Ba/F3 (murine pro-B cells); the other entry of the earlier key: KIF5B (P33176, Kinesin-1 heavy chain)
# T2 sequence (P07949 713-1063 limits assumed): T1 sequence (P07949 713-1063 V804M limits assumed) with M92V
# Procedure: as §1, §2, §3, §4, §5, §6
# Ba/F3-KIF5B-RET cells = assay: In vivo efficacy study, subcutaneous Ba/F3-KIF5B-RET tumor in nude mice; parameters: species or system BALB/c nude mice; conditions: 10 mg/kg P.O. BID x 3 weeks
# Procedure: Cell culture: Ba/F3-KIF5B-RET cell line was cultured with 1640 medium (Biological Industries)+10%/f fetal bovine serum (BI)+1% double antibody (Penicillin Streptomycin solution, Corning, USA) at 37° C. with 5% CO2. Two passages were performed for one week. When the cell saturation was 80%-90% and the number reached the required level, the cells were collected, counted and inoculated.
# Animals: BALB/c nude mice, female, 6-8 weeks of age, weighing 18-22 g. A total of 18 mice were required, provided by Beijing Vital River Laboratory Animal Technology Co., Ltd.
# Tumor inoculation: 0.2 ml (2×106) Ba/F3-KIF5B-RET cells (plus stromal gel, volume ratio 1:1) were inoculated subcutaneously on the right posterior dorsum of each mouse, and group dosing was started when the average tumor volume reached about 150-200 mm^3.
# Experimental index: Tumor volume and body weight were measured twice a week. Tumor volume was measured by vernier calipers with the formula TV=0.5 a×b2, where a is the long diameter of the tumor and b is the short diameter of the tumor.
# Ba/F3-KIF5B-RET-V804L = molecular target: T3, Ba/F3-KIF5B-RET-V804L (Homo sapiens, UniProt P07949, V804L); assay: Cell anti-proliferation (CellTiter-Glo), Ba/F3-KIF5B-RET-V804L cells; assay type: cell-based; conditions: cell viability, 72 h incubation
# T3 construct: KIF5B (fusion partner, N-terminal part of kinesin-1 heavy chain, P33176); host or cells: Ba/F3 (murine pro-B cells); the other entry of the earlier key: KIF5B (P33176, Kinesin-1 heavy chain)
# T3 sequence (P07949 713-1063 V804L limits assumed): T1 sequence (P07949 713-1063 V804M limits assumed) with M92L
# Procedure: as §1, §2, §3, §4, §5, §6
SMILES,overall remission rate (ORR) (RET; patients with medullary thyroid carcinoma),overall remission rate (ORR) (RET; patients with non-small cell lung cancer),overall remission rate (ORR) (RET; tumor patients with RET fusion and mutation),IC50 (Ba/F3-KIF5B-RET-V804M),IC50 (Ba/F3-KIF5B-RET),Tumor Volume(mm^3) 0 day (Ba/F3-KIF5B-RET cells),Tumor Volume(mm^3) 2 days (Ba/F3-KIF5B-RET cells),Tumor Volume(mm^3) 5 days (Ba/F3-KIF5B-RET cells),Tumor Volume(mm^3) 9 days (Ba/F3-KIF5B-RET cells),Tumor Volume(mm^3) 12 days (Ba/F3-KIF5B-RET cells),Tumor Volume(mm^3) 16 days (Ba/F3-KIF5B-RET cells),Tumor Volume(mm^3) 19 days (Ba/F3-KIF5B-RET cells),Tumor Volume(mm^3) 22 days (Ba/F3-KIF5B-RET cells),IC50 (Ba/F3-KIF5B-RET-V804L)
CO[C@]1(C(=O)N[C@@H](C)c2ccc(-n3cc(F)cn3)nc2)CC[C@H](c2nc(C)cc(Nc3cc(C)[nH]n3)n2)CC1 [BLU-667],40%,50%,45%,–,–,–,–,–,–,–,–,–,–,–
CO[C@]1(C(=O)N[C@@H](C)c2ccc(-n3cc(F)cn3)nc2)CC[C@H](c2nc(Nc3cc(C)[nH]n3)c3cnn(C)c3n2)CC1 [Compound C1],–,–,–,< 10 nM,< 10 nM,168.34 mm^3,162.57 mm^3,139.55 mm^3,189.12 mm^3,222.35 mm^3,203.41 mm^3,199.75 mm^3,199.64 mm^3,< 10 nM
"CO[C@]1(C(=O)N[C@@H](C)c2ccc(-n3cc(F)cn3)nc2)CC[C@H](c2nc(Nc3cc(C)[nH]n3)c3ccn(C)c3n2)CC1 [Control Example 1, reference compound]",–,–,–,< 10 nM,< 10 nM,169.95 mm^3,157.73 mm^3,144.57 mm^3,185.92 mm^3,204.18 mm^3,272.83 mm^3,277.52 mm^3,292.41 mm^3,< 10 nM
